Source: PubChem BioAssay (NCI)
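48-hour exposure; five concentrations; linearly interpolated endpoints. GI50: concentration for 50% inhibition of growth. Definition used: TGI = concentration required for complete inhibition of growth.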

Columns and labels:
Test in all cases: NCI-60 cell line screen, 48 h
CAKI-1 renal = tested on: CAKI-1 renal
SN12C renal = tested on: SN12C renal
RPMI-8226 leukemia = tested on: RPMI-8226 leukemia
UO-31 renal = tested on: UO-31 renal
MCF7 breast = tested on: MCF7 breast
PC-3 prostate = tested on: PC-3 prostate
TK-10 renal = tested on: TK-10 renal
SK-MEL-5 melanoma = tested on: SK-MEL-5 melanoma
SF-295 CNS = tested on: SF-295 CNS
HS 578T breast = tested on: HS 578T breast
A549 NSCLC = tested on: A549 NSCLC
HCT-15 colon = tested on: HCT-15 colon
EKVX NSCLC = tested on: EKVX NSCLC
SK-OV-3 ovarian = tested on: SK-OV-3 ovarian
SR leukemia = tested on: SR leukemia
IGROV1 ovarian = tested on: IGROV1 ovarian
HL-60(TB) leukemia = tested on: HL-60(TB) leukemia
U251 CNS = tested on: U251 CNS
786-0 renal = tested on: 786-0 renal
DU-145 prostate = tested on: DU-145 prostate
SK-MEL-2 melanoma = tested on: SK-MEL-2 melanoma
OVCAR-5 ovarian = tested on: OVCAR-5 ovarian
A498 renal = tested on: A498 renal
RXF 393 renal = tested on: RXF 393 renal
HCC-2998 colon = tested on: HCC-2998 colon
MOLT-4 leukemia = tested on: MOLT-4 leukemia
M14 melanoma = tested on: M14 melanoma
SF-539 CNS = tested on: SF-539 CNS

SMILES: O=C(N/N=C/c1ccc(Br)s1)c1[nH]c2ccc(Br)cc2c1-c1ccccc1
- GI50 (CAKI-1 renal): 1240 nM
- TGI (CAKI-1 renal): > 39 µM
- GI50 (SN12C renal): 547 nM
- TGI (SN12C renal): > 38.2 µM
- GI50 (RPMI-8226 leukemia): 377 nM
- TGI (RPMI-8226 leukemia): > 62.5 µM
- GI50 (UO-31 renal): 1400 nM
- TGI (UO-31 renal): > 100 µM
- GI50 (MCF7 breast): 852 nM
- TGI (MCF7 breast): > 34.5 µM
- GI50 (PC-3 prostate): 386 nM
- TGI (PC-3 prostate): > 52.3 µM
- GI50 (TK-10 renal): 8.83 µM
- TGI (TK-10 renal): > 82.8 µM
- GI50 (SK-MEL-5 melanoma): 675 nM
- TGI (SK-MEL-5 melanoma): 1520 nM
- GI50 (SF-295 CNS): 907 nM
- TGI (SF-295 CNS): 11 µM
- GI50 (HS 578T breast): 791 nM
- TGI (HS 578T breast): 41.9 µM
- GI50 (A549 NSCLC): 1010 nM
- TGI (A549 NSCLC): > 44 µM
- GI50 (HCT-15 colon): 934 nM
- TGI (HCT-15 colon): > 36.2 µM
- GI50 (EKVX NSCLC): 4.92 µM
- TGI (EKVX NSCLC): > 100 µM
- GI50 (SK-OV-3 ovarian): 4.07 µM
- TGI (SK-OV-3 ovarian): > 100 µM
- GI50 (SR leukemia): 270 nM
- TGI (SR leukemia): > 50.1 µM
- GI50 (IGROV1 ovarian): 983 nM
- TGI (IGROV1 ovarian): > 39.1 µM
- GI50 (HL-60(TB) leukemia): < 48.4 nM
- TGI (HL-60(TB) leukemia): 387 nM
- GI50 (U251 CNS): 989 nM
- TGI (U251 CNS): > 39.9 µM
- GI50 (786-0 renal): 1260 nM
- TGI (786-0 renal): > 100 µM
- GI50 (DU-145 prostate): 700 nM
- TGI (DU-145 prostate): > 59.8 µM
- GI50 (SK-MEL-2 melanoma): 710 nM
- TGI (SK-MEL-2 melanoma): > 50.4 µM
- GI50 (OVCAR-5 ovarian): 863 nM
- TGI (OVCAR-5 ovarian): > 86.1 µM
- GI50 (A498 renal): 35.2 µM
- TGI (A498 renal): > 84.1 µM
- GI50 (RXF 393 renal): 1270 nM
- TGI (RXF 393 renal): 37.3 µM
- GI50 (HCC-2998 colon): 1040 nM
- TGI (HCC-2998 colon): > 47.4 µM
- GI50 (MOLT-4 leukemia): 203 nM
- TGI (MOLT-4 leukemia): 38.9 µM
- GI50 (M14 melanoma): 1030 nM
- TGI (M14 melanoma): > 100 µM
- GI50 (SF-539 CNS): 292 nM
- TGI (SF-539 CNS): 1150 nM
